# Earlier results as cited in patent US6676928B2, “Perfluoroalkyl-containing complexes with polar radicals, process for their production and their use” (Schering Aktiengesellschaft, priority 2000, dated 2004).
# Several values for one entry are separate records, joined by “and”; a condition that tells them apart may be missing. Identical values can stand only once.
# Tests used:
# [1] = 39° C., 0.47 T; cited from earlier work
# [2] = 39° C., 0.47 T; cited from earlier work; remark: listed apart in the source
# [3] = in vivo; cited from earlier work
# [4] = tested on: infarcted tissue (kidney, myocardium); conditions: two cases: infarction-kidney and myocardium; cited from earlier work
Molecule,T^1 - Relaxivity in Water [1],T^1 - Relaxivity in Plasma [2],LD50 [3],"ratio of the signal intensities in MRI, infarcted in comparison to healthy tissue [4]"
CNC[C@H](O)[C@@H](O)[C@H](O)[C@H](O)CO.O=C([O-])CN1CCN(CC(=O)[O-])CCN(CC(=O)O)CCN(CC(=O)[O-])CC1.[Gd+3] [DOTAREM ®],3.5 mmol⁻¹ s⁻¹,4.3 mmol⁻¹ s⁻¹,–,–
"O=S(=O)([O-])c1ccc(-c2c3nc(c(-c4ccc(S(=O)(=O)[O-])cc4)c4ccc([nH]4)c(-c4ccc(S(=O)(=O)[O-])cc4)c4nc(c(-c5ccc(S(=O)(=O)[O-])cc5)c5ccc2[nH]5)C=C4)C=C3)cc1.[Mn+4] [Mn-TPPS, manganese-5,10,15,20-tetrakis(4-sulfonatophenyl)-porphyrin]",–,–,approximately 0.5 mmol/kg,–
gadolinium-mesoporphyrin [Gd-MP],–,–,–,2.10 and 2.19
CC(O)CN1CCN(CC(=O)[O-])CCN(CC(=O)[O-])CCN(CC(=O)[O-])CC1.[Gd+3] (stereo not shown) [PRO HANCE ®],3.7 mmol⁻¹ s⁻¹,4.9 mmol⁻¹ s⁻¹,–,–
CNC[C@H](O)[C@@H](O)[C@H](O)[C@H](O)CO.CNC[C@H](O)[C@@H](O)[C@H](O)[C@H](O)CO.O=C([O-])CN(CCN(CC(=O)[O-])CC(=O)O)CCN(CC(=O)[O-])CC(=O)O.[Gd+3] [MAGNEVIST ®],3.8 mmol⁻¹ s⁻¹,4.8 mmol⁻¹ s⁻¹,–,–
CNC(=O)CN(CCN(CCN(CC(=O)[O-])CC(=O)NC)CC(=O)[O-])CC(=O)[O-].[Gd+3] [OMNISCAN ®],3.8 mmol⁻¹ s⁻¹,4.4 mmol⁻¹ s⁻¹,–,–
